According to patent US5436369A, “Alicyclic phospholipase A2 inhibitors” (Bristol-Myers Squibb Company, priority 1994, dated 1995):

Molecular target: T1, PLA2 (Homo sapiens, UniProt P14555)
T1 construct: The enzyme is isolated from human platelets; from tissue; host or cells: human platelets
T1 sequence (P14555 21-144): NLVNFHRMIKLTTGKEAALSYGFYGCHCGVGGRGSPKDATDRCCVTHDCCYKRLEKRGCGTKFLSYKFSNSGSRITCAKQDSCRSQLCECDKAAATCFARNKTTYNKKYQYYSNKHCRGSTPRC
Assay: PLA2 Inhibition Assay (14C-oleate labeled E. coli membrane substrate)
Type: biochemical
Conditions: enzyme isolated from human platelets
Method: The method used is similar to that reported by Franson, et al. [Jesse, R. L. and Franson R. C., Biochim. Biophys. Acta 575:467-470 (1979); Franson, R. C., Patriarca, P., and Elsback, P., J. Lipid Res. 15: 380-388 (1974)]. The enzyme is isolated from human platelets. The substrate used consists of ^14 C-oleate labeled Escherichia coli membranes. E. coli cells are grown in the presence of ^14 C-oleic acid and then autoclaved to prepare the membranes.
Various concentrations of test compounds are pre-incubated with PLA2 (3.6 μg/mL in a buffer consisting of 25 mM HEPES (pH 7)), 150 mM NaCl, 5.0 mM CaCl2, and 10% DMSO (v/v, test compound solvent) at 37° C. for 7 minutes. The E. coli membrane substrate is then added (0.1 mM phospholipid, 0.005 μCi ^14 C) and the reaction is then incubated at 37° C. for 30 minutes. The reaction is then terminated by the addition of 1.9 mL tetrahydrofuran (THF), and the entire solution is applied to a solid-phase extraction column (aminopropyl resin, Analytichem). The column is rinsed with an additional 1 mL of THF. The free fatty acid product of the reaction is then eluted from the column with 1 mL of 2% acetic acid in THF and collected in a scintillation vial. The amount of free fatty acid product is determined by liquid scintillation counting. The amount of inhibition produced by the test compound is calculated by comparing the counts obtained in the presence of the compound to those obtained in its absence (solvent only). Background counts were determined by performing incubations in the absence of enzyme.
Percent inhibition is determined by the equation: [formula]

[1] = Table 2, Structure 14 (Type IA)
[2] = Table 3, Structure 18 (Type IB)
[3] = Table 4, Structure 20 (Type IB)

Row | SMILES | inhibition at 100 µM [2] [%] | inhibition at 100 µM [3] [%] | other results
1 | O=C(O)/C=C\C(=C\CCc1ccc(C23CC4CC(CC(C4)C2)C3)c(OCc2cc(F)cc(F)c2)c1)c1cccc(C(F)(F)F)c1 [Structure 14s, (2Z),(4Z)-4-(3-Trifluoromethylphenyl)-7-[4-(1-adamantyl)-3-(3,5-difluorobenzyloxy)phenyl]-2,4-heptadienoic acid] |  |  | inhibition at 100 µM [1]: 100%
2 | COc1ccc(COc2cc(CC/C=C(/C=C\C(=O)O)c3cccc(C(F)(F)F)c3)ccc2C23CC4CC(CC(C4)C2)C3)cc1 [Structure 14t, (2Z),(4Z)-4-(3-Trifluoromethylphenyl)-7-[4-(1-adamantyl)-3-(4-methoxybenzyloxy)phenyl]-2,4-heptadienoic acid] |  |  | inhibition at 100 µM [1]: 100%
3 | O=C(O)/C=C\C(=C\CCc1ccc(C23CC4CC(CC(C4)C2)C3)c(OCc2ccccc2)c1)c1cccc(C(F)(F)F)c1 [Structure 14u, (2Z),(4Z)-4-(3-Trifluoromethylphenyl)-7-[4-(1-adamantyl)-3-benzyloxyphenyl]-2,4-heptadienoic acid] |  |  | inhibition at 100 µM [1]: 100%
4 | O=C(O)/C=C\C(=C\CCc1ccc(C23CC4CC(CC(C4)C2)C3)c(OCC(=O)O)c1)c1cccc(C(F)(F)F)c1 [Structure 14v, (2Z),(4Z)-4-(3-Trifluoromethylphenyl)-7-[4-(1-adamantyl)-3-(carboxymethoxy)phenyl]-2,4-heptadienoic acid] |  |  | inhibition at 100 µM [1]: 100%
5 | CC1(C)CCC(C)(C)c2cc(/C=C(/C=C/C(=O)O)c3cccc(C(=O)O)c3)ccc21 [Structure 18a, (2E),(4Z)-4-(3-Carboxyphenyl)-5-(5,6,7,8-tetrahydro-5,5,8,8-tetramethyl-2-naphthalenyl)-2,4-pentadienoic acid] | 27 |  | 
6 | CC1(C)CCC(C)(C)c2cc3cc(/C=C(/C=C/C(=O)O)c4cccc(C(=O)O)c4)ccc3cc21 [Structure 18b, (2E),(4Z)-4-(3-Carboxyphenyl)-5-(5,6,7,8-tetrahydro-5,5,8,8-tetramethyl-2-anthracenyl)-2,4-pentadienoic acid] | 100 |  | 
7 | CCCCCOc1ccc(/C=C(/C=C/C(=O)O)c2cccc(C(=O)O)c2)cc1OCCCCC [Structure 18c, (2E),(4Z)-4-(3-Carboxyphenyl)-5-(3,4-bispentyloxyphenyl)-2,4-pentadienoic acid] | 70 |  | 
8 | CCCCCCCCCCOc1ccc(/C=C(/C=C/C(=O)O)c2cccc(C(=O)O)c2)cc1OCCCCCCCCCC [Structure 18d, (2E),(4Z)-4-(3-Carboxyphenyl)-5-(3,4-bisdecyloxyphenyl)-2,4-pentadienoic a cid] | 91 |  | 
9 | CC1(C)CCC(C)(C)c2cc(CC/C=C(/C=C/C(=O)O)c3cccc(C(=O)O)c3)ccc21 [Structure 18e, (2E),(4Z)-4-(3-Carboxyphenyl)-7-(5,6,7,8-tetrahydro-5,5,8,8-tetramethyl-2-naphthalenyl)-2,4-heptadienoic acid] | 55 |  | 
10 | CC1(C)CCC(C)(C)c2cc(CC/C=C(/C=C/C(=O)O)c3cccc(C(F)(F)F)c3)ccc21 [Structure 20a, (2E),(4Z)-4-(3-Trifluoromethylphenyl)-7-(5,6,7,8-tetrahydro-5,5,8,8-tetramethyl-2-naphthalenyl)-2,4-heptadienoic acid] |  | 52 | 
11 | CC1(C)CCC(C)(C)c2cc(CC/C=C(/C=C/C(=O)O)c3ccc(F)cc3)ccc21 [Structure 20b] |  | 73 | 
12 | CC1(C)CCC(C)(C)c2cc(CC/C=C(/C=C/C(=O)O)c3cccc(F)c3)ccc21 [Structure 20c, (2E),(4Z)-4-(3-Fluorophenyl)-7-(5,6,7,8-tetrahydro-5,5,8,8-tetramethyl-2-naphthalenyl)-2,4-heptadienoic acid] |  | 67 | 
13 | CC1(C)CCC(C)(C)c2cc(CC/C=C(/C=C/C(=O)O)c3ccccc3)ccc21 [Structure 20d, (2E),(4Z)-4-Phenyl-7-(5,6,7,8-tetrahydro-5,5,8,8-tetramethyl-2-naphthalenyl)-2,4-heptadienoic acid] |  | 62 | 
14 | COc1ccc(CC/C=C(/C=C/C(=O)O)c2cccc(C(F)(F)F)c2)cc1C12CC3CC(CC(C3)C1)C2 [Structure 20e, (2Z),(4Z)-4-(3-Trifluoromethylphenyl)-7-[3-(1-adamantyl)-4-methoxyphenyl]-2,4-heptadienoic acid] |  | 81 | 
15 | COc1cc(CC/C=C(/C=C/C(=O)O)c2cccc(C(F)(F)F)c2)ccc1C12CC3CC(CC(C3)C1)C2 [Structure 20f, (2Z),(4Z)-4-(3-Trifluoromethylphenyl)-7-[4-(1-adamantyl)-3-methoxyphenyl]-2,4-heptadienoic acid] |  | 90 | 
16 | CC1(C)CCC(C)(C)c2cc(CC/C=C(/CCC(=O)O)c3cccc(C(F)(F)F)c3)ccc21 [Structure 40, (Z)-4-(3-trifluoromethylphenyl)-7-(5,6,7,8-tetrahydro-5,5,8,8-tetramethyl-2-naphthalenyl)-4-heptenoic acid] |  |  | % Inhibition of PLA2 AT 100 μm (Table 6, Structure 40 (Type ID), 100 μm as printed): 79%
